Experimental data reported in publication PMC5826973 (Frontiers in Pharmacology, 2018).

How the values were obtained:
QGY HCC cells = test: MTT-based cell proliferation assay, QGY; parameters: species or system human
Procedure: (§1) Human HCC cells SK-HEP1 and QGY; breast cancer cells HCC1954, BT474, and MDA-MB468; ovarian cancer cells SKOV3; and prostate cancer cells PC3 and LNCaP were purchased from the Cell Bank of Chinese Academy of Sciences (Shanghai, China), and cultured in T75 flasks with complete DMEM or RPMI 1640 medium (GIBCO, Invitrogen, Gaithersburg, CA, United States) supplemented with 10% FBS (Hyclone, New Zealand), and 1% penicillin/streptomycin (Solarbio, Beijing, China) at 37°C in a humidified atmosphere containing 5% CO2.
(§2) Cell proliferation was determined using methylthiazolyl diphenyl-tetrazolium bromide assay (MTT; Sigma–Aldrich). The cells were seeded onto 96-well plates in a total volume of 150 μl at a density of 3.5 × 10^4 cells/well. […] To avoid the effect of the solvent, the concentration of DMSO was less than 0.1% (v/v) in all experiments. After incubation at 37°C for 48 h, 10 μl of MTT solution (5 mg/ml) was added and continued to incubate for 4 h. Following removal of medium containing MTT, 200 μl of DMSO was added to dissolve the formazan crystals formed by live cells. Solution absorbance was measured at 490 nm with an absorbance microplate reader (BioTek, Winooski, VT, United States). The assay was repeated six times. The IC50 value was determined from plot of % viability against the dose of compounds added.

SK-HEP1 HCC cells = test: MTT-based cell proliferation assay, SK-HEP1; parameters: species or system human
Procedure: as §1, §2

CyPJ = biological target: T1, CyPJ (Homo sapiens, UniProt Q9H2H8); test: Surface plasmon resonance (SPR) binding assay; conditions: Biacore 3000, recombinant human CyPJ immobilized on CM5 chip, 20°C, compounds 0.3–10 μM
T1 construct: made in house
T1 sequence (Q9H2H8 1-161): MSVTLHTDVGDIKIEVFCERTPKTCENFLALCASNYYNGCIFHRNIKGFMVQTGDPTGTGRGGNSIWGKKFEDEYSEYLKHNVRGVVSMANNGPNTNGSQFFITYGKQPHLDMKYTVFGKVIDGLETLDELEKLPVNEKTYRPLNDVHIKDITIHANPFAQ
Procedure: The binding affinity of the selected compounds to CyPJ was measured by SPR with a Biacore 3000 instrument (Biacore AB Corporation, Uppsala, Sweden) as previously described ([Guo et al., 2005]; [Chen et al., 2007]). Briefly, recombinant human CyPJ protein was immobilized on an activated sensor chip via amine coupling. CyPJ protein (10 μM) was coupled to a CM5 sensor chip surface (a carboxymethylated dextran surface; CM5 chip from Biacore, Inc., Piscataway, NJ, United States) in a buffer containing 10 mM sodium acetate (pH 4.0) using standard amine coupling chemistry according to the manufacturer’s instructions. Flow cell 1 (FC-1) was used as the control surface and flow cell 2 (FC-2) contained 9000 resonance units (RU) of CyPJ (1 RU corresponds to 1 pg of protein per mm^2). The buffer stream was passed through FC-1 and FC-2 of the bi-channel at a flow rate of 40 μl/min. Compounds to be tested were purchased from SPECS (Netherlands). All chemicals were of the highest purity available, as certified by the vendor. All compounds were stocked in 100% dimethylsulfoxide at 10 mM and diluted at graded concentrations (0.3–10 μM) with HBS-EP buffer (0.01 M HEPES buffer, pH 7.4, containing 0.15 M NaCl, 3.4 mM EDTA, and 0.005% surfactant P20) containing 1% dimethylsulfoxide. The temperature of the instrument was set to 20°C, and the flow rate was set to 40 μl/min. Each compound (50 μl) was injected sequentially. NaOH (50 mM) was used to regenerate the surface of the CM5 chip. The 1:1 Langmuir binding model was used to determine the equilibrium dissociation constant (KD). For fast interactions, the steady-state model was used to determine KD values. All experiments were carried out in triplicate.

CyPJ PPIase = biological target: T2, CyPJ PPIase (Homo sapiens, UniProt Q9H2H8); test: α-chymotrypsin-coupled PPIase assay; assay type: biochemical; conditions: for IC50: read-out: Compound IC50 for PPIase; for Compound IC50 for PPIase: CyPJ PPIase, substrate Suc-AAPF-pNA, 8°C, – = no inhibition detectable
T2 construct: made in house
T2 sequence (Q9H2H8 1-161): T1 sequence (Q9H2H8 1-161)
Procedure: We used an α-chymotrypsin-coupled PPIase assay, where the substrate succinyl-Ala-Ala-Pro-Phe-p-nitroanilide (Suc-AAPF-pNA) is first converted to the trans conformation by PPIase, and can then be digested by α-chymotrypsin to release chromogenic p-nitroanilide; the latter compound is then monitored with a spectrometer. Briefly, the assay was performed under 8°C in a 100 μl system. The Suc-AAPF-pNA was dissolved in the […] containing 480 mM of LiCl (working concentration: 3.0 mM). The α-chymotrypsin was dissolved in 1 mM HCl (working concentration: […]). When assayed, each test compound was diluted in 94 μl of assay buffer (50 mM HEPES, 100 mM NaCl; pH 8.0 at 0°C), and then mixed with 2 μl of CyPJ solution (5 μM). […] Three independent experiments were performed for each test compound and the respective half maximal inhibitory concentration (IC50) was calculated with OriginPro 7.5 software (OriginLab, Northampton, MA, United States).
The inhibitory effect of each compounds was determined with a standard spectrophotometric method in chymotrypsin-coupled assays with different concentrations of peptide substrate. The rate constants for the cis–trans conversion were evaluated by fitting the data to the integrated first-order rate equation through nonlinear least-square analysis.

[1] = Blood serum level after intraperitoneal administration; assay type: in vivo; conditions: blood serum (unpublished data)
[2] = tested on: xenograft mouse tumor model; test: In vivo xenograft mouse tumor model; conditions: xenograft mouse tumor model (unpublished data)
[3] = tested on: HCC1954 breast cancer cells; test: Growth inhibition, HCC1954; assay type: cell-based, human
Procedure: as §1, §2

[4] = tested on: PC3 prostate cancer cells; test: Growth inhibition, PC3; assay type: cell-based, human
Procedure: as §1, §2

[5] = tested on: BT474 breast cancer cells; test: Growth inhibition, BT474; assay type: cell-based, human
Procedure: as §1, §2

[6] = tested on: LNCaP prostate cancer cells; test: Growth inhibition, LNCaP; assay type: cell-based, human
Procedure: as §1, §2

[7] = tested on: SKOV3 ovarian cancer cells; test: Growth inhibition, SKOV3; assay type: cell-based, human
Procedure: as §1, §2

[8] = tested on: MDA-MB-468 breast cancer cells; test: Growth inhibition, MDA-MB-468; assay type: cell-based, human
Procedure: as §1, §2

[9] = Homo sapiens, SK-HEP1, Table 2, 48 h
[10] = Table 4, ZX-J-19 derivatives, 48 h

Kd (CyPJ) [µM] | IC50 (QGY HCC cells; [10]) [µM] | IC50 (SK-HEP1 HCC cells; [10]) [µM] | SMILES | other results
0.0988 |  |  | C/C(=N/NC(=O)c1ccc(COc2ccc3c(c2)CCC3)o1)c1ccc(NC(=O)C2CCCC2)cc1 [ZX-J-11] | IC50 (CyPJ PPIase): 19.95 ± 0.025 µM
118 |  |  | CCCCOc1cccc(-c2cc(C(=O)Nc3ccc4c(c3)OCCO4)c3ccccc3n2)c1 [ZX-J-12] | IC50 (CyPJ PPIase): 12.95 ± 0.054 µM
0.0435 |  |  | COc1cc(/C=N/NC(=O)c2cc3c(ccc4ccccc43)o2)ccc1OCc1ccccc1F [ZX-J-17] | Compound IC50 for PPIase (CyPJ PPIase): no inhibition
0.242 |  |  | Cc1cc(NC(=O)C(=O)NCCN2CCN(C(=O)c3ccccc3F)CC2)ccc1Br [ZX-J-18] | Compound IC50 for PPIase (CyPJ PPIase): no inhibition
16.7 |  |  | CN(C)C(=O)Nc1ccc2nc(-c3ccco3)c(-c3ccco3)nc2c1 [ZX-J-19] | time until absorbed and accumulated in blood serum [1]: ≤ 10 min; time until declined and diminished to control levels [1]: 8 h; IC50 (QGY HCC cells; Homo sapiens, Table 2, 48 h): 52.438 ± 0.019 µM; IC50 (SK-HEP1 HCC cells; [9]): 40.44 ± 0.033 µM; antitumor activity in vivo [2]: poor antitumor activity; IC50 (CyPJ PPIase): 15.949 ± 0.012 µM
 | 26 | 21.6 | CC(C)(C)C(=O)Nc1ccc2nc(-c3ccccc3)c(-c3ccccc3)nc2c1 [ZX-J-19b] | 
 | 37.6 |  | O=C(Nc1ccc2nc(-c3ccccc3)c(-c3ccccc3)nc2c1)c1ccc([N+](=O)[O-])cc1 [ZX-J-19c] | 
 | 17.9 | 11.3 | O=C(CCl)Nc1ccc2nc(-c3ccccc3)c(-c3ccccc3)nc2c1 [ZX-J-19d] | 
 | 11.3 | 9.89 | O=C(Nc1ccc2nc(-c3ccccc3)c(-c3ccccc3)nc2c1)c1ccc(Cl)cc1 [ZX-J-19g] | 
 | 27.5 | 40.3 | O=C(Nc1ccc2nc(-c3ccccc3)c(-c3ccccc3)nc2c1)c1ccccc1 [ZX-J-19h] | 
 | 199 | 7.53 | CC(=O)Nc1ccc2nc(-c3ccccc3)c(-c3ccccc3)nc2c1 [ZX-J-19k] | 
 | 98.4 | 17.3 | CCCCCCCC(=O)Nc1ccc2nc(-c3ccco3)c(-c3ccco3)nc2c1 [ZX-J-19o] | 
 |  | 45.7 | O=C(Nc1ccc2nc(-c3ccco3)c(-c3ccco3)nc2c1)c1ccccc1Cl [ZX-J-19p] | 
 | 127 | 140 | O=C(CCl)Nc1ccc2nc(-c3ccc[nH]3)c(-c3ccc[nH]3)nc2c1 [ZX-J-19v] | 

Further lines, the molecule ahead of its results:

SMILES | Kd (CyPJ) [µM] | IC50 (QGY HCC cells; [10]) [µM] | IC50 (SK-HEP1 HCC cells; [10]) [µM] | other results
O=c1[nH]cc(F)c(=O)[nH]1 [Compound 5-FU, 5-fluorouracil, reference compound] |  |  |  | IC50 (QGY HCC cells; Homo sapiens, Table 2, 48 h): 238.53 ± 0.035 µM; IC50 (SK-HEP1 HCC cells; [9]): 177.24 ± 0.065 µM
CCOC(=O)c1ccc(NC(=O)c2cc(-c3ccc(C)c(C)c3)nc3ccccc23)cc1 [ZX-J-8] | 14.5 |  |  | IC50 (CyPJ PPIase): 10.3 ± 0.442 µM
COc1ccc(NC(=O)c2ccc(COc3ccccc3Br)o2)c(OC)c1 [ZX-J-9] | 1.29 |  |  | IC50 (CyPJ PPIase): 8.54 ± 0.965 µM
COc1ccc(CCNC(=O)c2ccc(C(=O)NCCc3ccc(OC)c(OC)c3)nc2)cc1OC [ZX-J-10] | 0.8 |  |  | Compound IC50 for PPIase (CyPJ PPIase): no inhibition
CC(C)OC(=O)c1ccc(NC(=O)c2ccc(COc3ccccc3Cl)o2)cc1 [ZX-J-13] | 0.516 |  |  | IC50 (CyPJ PPIase): 12.63 ± 0.068 µM
COc1cc(NC(=O)COc2ccc3ccccc3c2)ccc1NC(=O)c1cc2ccccc2o1 [ZX-J-15] | 0.661 |  |  | Compound IC50 for PPIase (CyPJ PPIase): no inhibition
CCCOC(=O)c1ccc(N2C(=O)c3ccc(C(=O)OC(C)C(=O)c4ccc(C)cc4)cc3C2=O)cc1 (stereo not shown) [ZX-J-16] | 3.41 |  |  | IC50 (CyPJ PPIase): 18.5 ± 0.727 µM
O=C(Nc1ccc2nc(-c3ccccc3)c(-c3ccccc3)nc2c1)c1cccc(Cl)c1 [ZX-J-19e] |  | 12.3 | 7.5 | 
CCC(=O)Nc1ccc2nc(-c3ccccc3)c(-c3ccccc3)nc2c1 [ZX-J-19i] |  |  | 40.8 | 
CCCCCCCC(=O)Nc1ccc2nc(-c3ccccc3)c(-c3ccccc3)nc2c1 [ZX-J-19j, N-(2,3-diphenylquinoxalin-6-yl)octanamide] |  |  |  | inhibition at 20 µM ([3]; Homo sapiens): 64.2%; inhibition at 20 µM ([4]; Homo sapiens): 84.7%; IC50 (QGY HCC cells; Homo sapiens, Table 4, ZX-J-19 derivatives, 48 h): 12.5 µM; inhibition at 20 µM ([5]; Homo sapiens, BT-474): 84%; IC50 (SK-HEP1 HCC cells; Homo sapiens, SK-HEP1, Table 4, ZX-J-19 derivatives, 48 h): 6.73 µM; inhibition at 20 µM ([6]; Homo sapiens): 48.1%; inhibition at 20 µM ([7]; Homo sapiens, SK-OV-3): 48.1%; inhibition at 20 µM ([8]; Homo sapiens): 84.7%
CCCC(=O)Nc1ccc2nc(-c3ccccc3)c(-c3ccccc3)nc2c1 [ZX-J-19l] |  | 21.4 | 3.51 | % Growth inhibition at 20 μM [3]: 91.258%; % Growth inhibition at 20 μM [4]: 91.039%; % Growth inhibition at 20 μM [5]: 90.963%; % Growth inhibition at 20 μM [6]: 91.038%; % Growth inhibition at 20 μM [7]: 90.919%; % Growth inhibition at 20 μM [8]: 90.849%
CC(C)(C)C(=O)Nc1ccc2nc(-c3ccco3)c(-c3ccco3)nc2c1 [ZX-J-19m] |  | 82.3 | 76.7 | 
CCCC(=O)Nc1ccc2nc(-c3ccco3)c(-c3ccco3)nc2c1 [ZX-J-19n] |  | 18 | 17.7 | 
O=C(Nc1ccc2nc(-c3ccco3)c(-c3ccco3)nc2c1)c1ccc([N+](=O)[O-])cc1 [ZX-J-19q] |  | 44.3 | 43.6 | 
O=C(Nc1ccc2nc(-c3ccco3)c(-c3ccco3)nc2c1)c1ccccc1 [ZX-J-19r] |  | 17.3 | 18.8 | 
O=C(Nc1ccc2nc(-c3ccc[nH]3)c(-c3ccc[nH]3)nc2c1)c1ccc(Cl)cc1 [ZX-J-19t] |  | 42.5 | 46.3 | 
CC(=O)Nc1ccc2nc(-c3ccc[nH]3)c(-c3ccc[nH]3)nc2c1 [ZX-J-19u] |  | 32.7 | 14.2 | 
